Reference: patent US11702422B2, “Imidazopyridazines as modulators of IL-17” (Janssen Pharmaceutica NV, priority 2020, dated 2023)

What was measured:
[1] = molecular target: IL-17A(FLAG-Tagged): IL-17RA(His-Tagged) (Homo sapiens, UniProt Q16552, K93Q); assay: IL-17A(FLAG-Tagged): IL-17RA(His-Tagged) Binding Disruption Eu-HTRF Assay; settings: IL-17A/IL-17RA binding disruption, simple average if tested more than once
Outline: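 IC50 comes from a one-site competition fit of the HTRF 665/620 nm ratio. Compound dilutions (2-fold, 22 points) were held 1 h rt with FLAG-tagged IL-17A dimer, then His-tagged IL-17RA plus Eu-cryptate anti-FLAG and D2 anti-His antibodies were added for 2 h rt.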

[2] = test system: IL-17A-induced G-CSF production in human normal keratinocyte (NHK); assay: NHK Assay: IL-17A-induced G-CSF production in human normal keratinocytes; format: cell-based; settings: Homo sapiens, Keratinocyte, 24 h, adult normal human keratinocytes, IL-17A 5 ng/mL, simple average if tested more than once
Outline: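 Adult normal human keratinocytes were seeded at 3000-4000 cells/well. Recombinant human IL-17A was pre-incubated 1 h at rt with titrated compound, then added to cells (final 5 ng/mL IL-17A, 0.2% DMSO, 5% FBS) for 24 h at 37° C. Supernatant G-CSF was measured by HTRF against a standard curve to give IC50.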

Chain of UniProt Q16552 (Q16552 with tags, fused parts or gaps K93Q): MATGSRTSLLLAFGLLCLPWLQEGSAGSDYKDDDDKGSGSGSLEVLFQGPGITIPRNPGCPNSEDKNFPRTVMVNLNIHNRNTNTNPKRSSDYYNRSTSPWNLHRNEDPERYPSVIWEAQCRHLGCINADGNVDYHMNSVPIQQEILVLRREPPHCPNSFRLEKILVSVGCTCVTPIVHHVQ

Row | SMILES | IC50 [1] | IC50 [2]
1 | O=C(CC12CC(F)(C1)C2)N[C@@H](c1cnn2cc([C@@H](NC(=O)c3nonc3C3CC3)C3CCC(F)(F)CC3)nc2c1)C1CC1 [Example 296, 4-Cyclopropyl-N—((S)-(7-((R)-cyclopropyl(2-(3-fluorobicyclo[1.1.1]pentan-1-yl)acetamido)methyl)imidazo[1,2-b]pyridazin-2-yl)(4,4-difluorocyclohexyl)methyl)-1,2,5-oxadiazole-3-carboxamide] | 0.022 µM | 0.05 µM
2 | O=C(CC1(C(F)(F)F)CC1)N[C@@H](c1cnn2cc([C@@H](NC(=O)c3nonc3C3CC3)C3CCC(F)(F)CC3)nc2c1)C1CC1 [Example 297, 4-Cyclopropyl-N—((S)-(7-((R)-cyclopropyl(2-(1-(trifluoromethyl)cyclopropyl)acetamido)methyl)imidazo[1,2-b]pyridazin-2-yl)(4,4-difluorocyclohexyl)methyl)-1,2,5-oxadiazole-3-carboxamide] | 0.031 µM | 0.087 µM
3 | CC(C)Oc1nocc1C(=O)N[C@H](c1cn2ncc([C@H](NC(=O)CCC(F)F)C3CC3)cc2n1)C1CCC(F)(F)CC1 [Example 302, N—((S)-(7-((R)-Cyclopropyl(4,4-difluorobutanamido)methyl)imidazo[1,2-b]pyridazin-2-yl)(4,4-difluorocyclohexyl)methyl)-3-isopropoxyisoxazole-4-carboxamide] | 1.2 µM | > 20 µM
4 | CC(C)n1nccc1C(=O)N[C@H](c1cn2ncc([C@H](NC(=O)COCC(F)(F)F)C3CC3)cc2n1)C1CCC(F)(F)CC1 [Example 303, N—((S)-(7-((R)-Cyclopropyl(2-(2,2,2-trifluoroethoxy)acetamido)methyl)imidazo[1,2-b]pyridazin-2-yl)(4,4-difluorocyclohexyl)methyl)-1-isopropyl-1H-pyrazole-5-carboxamide] | 0.25 µM | 0.28 µM
5 | Cc1nonc1C(=O)N[C@H](c1cn2ncc([C@H](NC(=O)COCC(F)F)C3CC3)cc2n1)C1CCC(F)(F)CC1 [Example 304, N—((S)-(7-((R)-Cyclopropyl(2-(2,2-difluoroethoxy)acetamido)methyl)imidazo[1,2-b]pyridazin-2-yl)(4,4-difluorocyclohexyl)methyl)-4-methyl-1,2,5-oxadiazole-3-carboxamide] | 0.62 µM | 0.91 µM
6 | CC(C)n1nccc1C(=O)N[C@H](c1cn2ncc([C@H](NC(=O)COCC(F)F)C3CC3)cc2n1)C1CCC(F)(F)CC1 [Example 305, N—((S)-(7-((R)-Cyclopropyl(2-(2,2-difluoroethoxy)acetamido)methyl)imidazo[1,2-b]pyridazin-2-yl)(4,4-difluorocyclohexyl)methyl)-1-isopropyl-1H-pyrazole-5-carboxamide] | 0.14 µM | 1.1 µM
7 | Cc1nonc1C(=O)N[C@H](c1cn2ncc([C@H](NC(=O)COC3CC3)C3CC3)cc2n1)C1CCC(F)(F)CC1 [Example 306, N—((S)-(7-((R)-(2-Cyclopropoxyacetamido)(cyclopropyl)methyl)imidazo[1,2-b]pyridazin-2-yl)(4,4-difluorocyclohexyl)methyl)-4-methyl-1,2,5-oxadiazole-3-carboxamide] | 0.21 µM | 1.5 µM
8 | CC(C)n1nccc1C(=O)N[C@H](c1cn2ncc([C@H](NC(=O)COC3CC3)C3CC3)cc2n1)C1CCC(F)(F)CC1 [Example 307, N—((S)-(7-((R)-(2-Cyclopropoxyacetamido)(cyclopropyl)methyl)imidazo[1,2-b]pyridazin-2-yl)(4,4-difluorocyclohexyl)methyl)-1-isopropyl-1H-pyrazole-5-carboxamide] | 0.11 µM | 0.42 µM
9 | Cc1nonc1C(=O)N[C@H](c1cn2ncc([C@H](NC(=O)COC3CC(F)(F)C3)C3CC3)cc2n1)C1CCC(F)(F)CC1 [Example 308, N—((S)-(7-((R)-Cyclopropyl(2-(3,3-difluorocyclobutoxy)acetamido)methyl)imidazo[1,2-b]pyridazin-2-yl)(4,4-difluorocyclohexyl)methyl)-4-methyl-1,2,5-oxadiazole-3-carboxamide] | 0.2 µM | 1.7 µM
10 | CC(C)n1nccc1C(=O)N[C@H](c1cn2ncc([C@H](NC(=O)COC3CC(F)(F)C3)C3CC3)cc2n1)C1CCC(F)(F)CC1 [Example 309, N—((S)-(7-((R)-Cyclopropyl(2-(3,3-difluorocyclobutoxy)acetamido)methyl)imidazo[1,2-b]pyridazin-2-yl)(4,4-difluorocyclohexyl)methyl)-1-isopropyl-1H-pyrazole-5-carboxamide] | 0.1 µM | 0.29 µM
11 | Cc1nonc1C(=O)N[C@H](c1cn2ncc([C@H](NC(=O)CC(C)(C)C(F)F)C3CC3)cc2n1)C1CCC(F)(F)CC1 [Example 312, N—((S)-(7-((R)-Cyclopropyl(4,4-difluoro-3,3-dimethylbutanamido)methyl)imidazo[1,2-b]pyridazin-2-yl)(4,4-difluorocyclohexyl)methyl)-4-methyl-1,2,5-oxadiazole-3-carboxamide] | 0.37 µM | 3.2 µM
12 | CC(C)n1nccc1C(=O)N[C@H](c1cn2ncc([C@H](NC(=O)CC(C)(C)C(F)F)C3CC3)cc2n1)C1CCC(F)(F)CC1 [Example 313, N—((S)-(7-((R)-Cyclopropyl(4,4-difluoro-3,3-dimethylbutanamido)methyl)imidazo[1,2-b]pyridazin-2-yl)(4,4-difluorocyclohexyl)methyl)-1-isopropyl-1H-pyrazole-5-carboxamide] | 0.16 µM | 0.48 µM
13 | CC(C)n1nccc1C(=O)N[C@@H](COC(C)(C)C)c1cn2ncc([C@H](NC(=O)CC3CC(F)(F)C3)C3CC3)cc2n1 [Example 318, N—((R)-2-(tert-Butoxy)-1-(7-((R)-cyclopropyl(2-(3,3-difluorocyclobutyl)acetamido)methyl)imidazo[1,2-b]pyridazin-2-yl)ethyl)-1-isopropyl-1H-pyrazole-5-carboxamide] | 0.27 µM | 0.48 µM
14 | CC(C)(C)OC[C@H](NC(=O)c1nonc1C1CC1)c1cn2ncc([C@H](NC(=O)CC3CC(F)(F)C3)C3CC3)cc2n1 [Example 319, N—((R)-2-(tert-Butoxy)-1-(7-((R)-cyclopropyl(2-(3,3-difluorocyclobutyl)acetamido)methyl)imidazo[1,2-b]pyridazin-2-yl)ethyl)-4-cyclopropyl-1,2,5-oxadiazole-3-carboxamide] | 0.066 µM | 0.33 µM
15 | CC(C)n1nccc1C(=O)N[C@@H](COC(C)(C)C(F)(F)F)c1cn2ncc([C@H](NC(=O)CC3CC(F)(F)C3)C3CC3)cc2n1 [Example 320, N—((R)-1-(7-((R)-Cyclopropyl(2-(3,3-difluorocyclobutyl)acetamido)methyl)imidazo[1,2-b]pyridazin-2-yl)-2-((1,1,1-trifluoro-2-methylpropan-2-yl)oxy)ethyl)-1-isopropyl-1H-pyrazole-5-carboxamide] | 0.074 µM | 0.062 µM
16 | CC(C)(OC[C@H](NC(=O)c1nonc1C1CC1)c1cn2ncc([C@H](NC(=O)CC3CC(F)(F)C3)C3CC3)cc2n1)C(F)(F)F [Example 321, 4-Cyclopropyl-N—((R)-1-(7-((R)-cyclopropyl(2-(3,3-difluorocyclobutyl)acetamido)methyl)imidazo[1,2-b]pyridazin-2-yl)-2-((1,1,1-trifluoro-2-methylpropan-2-yl)oxy)ethyl)-1,2,5-oxadiazole-3-carboxamide] | 0.017 µM | 0.032 µM
